# Measured values as given in article PMC5342692, “Hyperosmotic treatment synergistically boost efficiency of cell-permeable peptides” (Oncotarget, 2016).
# Like-named read-outs stand apart in the source and are kept apart here. No end group written: not given here.
# Tests used:
# Caski cells [1] = assay: Fluorescent quantitation of FITC-labeled peptide uptake; format: cell-based, human; conditions: for intracellular fluorescence intensity of FITC-labeled CPPs with GSM combination: Caski cells co-incubated with glucose, sucrose and manntiol, fluorescence quantitation (Figure 6A)
# Protocol: Before the 10 μM FITC-labeled peptides addition, cells were washed with phosphate-buffered saline (0.1 M PBS, pH 7.4) for 3 times. After internalization for 1 h at 37°C, cells were washed 3 times with PBS, and then observed under fluorescence microscope (Nikon, Japan) using a bandpass filter (detects FITC). In some experiments, cell was pretreated with 5% (v/v %) of DMSO in serum-free medium.
# Intracellular fluorescence intensity of cells can be quantified using quantitative analysis by Multimode Spectrophotometry (Tecan 2000, Mannedorf, Switzerland). Briefly, after peptide incubation procedure shown above, cells were washed 3 times with PBS, lysed by 0.1 M NaOH at room temperature, and then centrifuged at 14000 g for 5 min. […] The fluorescence of cellular uptake is expressed as fluorescence intensity per mg of total cellular protein (protein concentration were determined using Bradford protein assay). All experiments were repeated at least three times and always performed in triplicate.
# Caski cells [2] = assay: MTT cell viability analysis; conditions: glycerol (30 mM) and glycine (15 mM) together
# Protocol: MTT assay was used to assess cell viability. Briefly, cells (4 × 10^4 cells) were seeded in one well of 96-well plates and cultivated in an RPMI-1640 medium for 24 h. Cells were washed with PBS and then adding different concentrations of supplements with a serum-free medium, incubated for 2 h at 37°C and washed with PBS twice, then incubated with fresh medium containing serum for 24 h. Then, 20 μl of MTT (5.5 mg/ml) in serum-free media was added directly to each well and incubated for 4 h at 37°C. Removing the supernatant and then adding 100 μl of DMSO, and incubated at 37°C for another 30 min before quantifying the absorbance at 550 nm.
# HepG2 cells = assay: Fluorescent quantitation of FITC-labeled peptide uptake; conditions: HepG2 cells co-incubated with glucose, sucrose and manntiol; fluorescence quantitation (Figure 6B)
# Protocol: (§1) HeLa, Siha, Caski, HepG2, A549 or B16 cells (density: 5 × 10^5 cells per well) were seeded into 24-well-plates (Greiner, Germany) and cultivated in RPMI-1640 medium for 24 h. Before the 10 μM FITC-labeled peptides addition, cells were washed with phosphate-buffered saline (0.1 M PBS, pH 7.4) for 3 times. After internalization for 1 h at 37°C, cells were washed 3 times with PBS, and then observed under fluorescence microscope (Nikon, Japan) using a bandpass filter (detects FITC). In some experiments, cell was pretreated with 5% (v/v %) of DMSO in serum-free medium.
# Intracellular fluorescence intensity of cells can be quantified using quantitative analysis by Multimode Spectrophotometry (Tecan 2000, Mannedorf, Switzerland). Briefly, after peptide incubation procedure shown above, cells were washed 3 times with PBS, lysed by 0.1 M NaOH at room temperature, and then centrifuged at 14000 g for 5 min. The fluorescence intensity of the supernatant was measured at the wavelength of 494/518 nm in a Multimode Microplate Reader. The fluorescence of cellular uptake is expressed as fluorescence intensity per mg of total cellular protein (protein concentration were determined using Bradford protein assay). All experiments were repeated at least three times and always performed in triplicate.
# Caski cells [3] = tested on: Caski cells
# Protocol: as §1
# A549 and Siha cells = format: cell-based, human
# Protocol: as §1
# [4] = glycerol and glycine combination or separately, fluorescence quantitation (Figure 4D)
molecule,measurement,setting,value
OCC(O)CO [glycerol],penetration enhancing activity on TAT-FITC,Caski cells [1]; [4],no significant penetration enhancing activity
NCC(=O)O [glycine],penetration enhancing activity on TAT-FITC,Caski cells [1],no significant penetration enhancing activity
same,cell viability (MTT) with glycerol and glycine addition during GSM treatment,Caski cells [2]; at 24 h (Figure 4A),rescue the cell viability
same,cell viability (MTT) with glycerol and glycine addition during GSM treatment,Caski cells [2]; at 48 h (Figure 4B),rescue the cell viability
same,cell viability (MTT) with glycerol and glycine addition during GSM treatment,Caski cells [2]; at 72 h (Figure 4C),rescue the cell viability
"KIPLPRFKLKCIFCKKRRKR [hPP10, newly found human-derived CPP labeled with FITC]",intracellular fluorescence intensity of FITC-labeled CPPs with GSM combination,Caski cells [1],facilitate the penetration efficiency
RKDRRGGEMMKQKRQRE [NLS],intracellular fluorescence intensity of FITC-labeled CPPs with GSM combination,Caski cells [1],facilitate the penetration efficiency
same,intracellular fluorescence intensity of FITC-labeled CPPs with GSM combination,HepG2 cells,facilitate the penetration efficiency
YGRKKRRQRRRK [TAT-FITC],TAT penetration efficiency at different temperatures,"Caski cells [1]; 4 and 37°C, GSM combination (Figure 7B)",decreased at lower temperatures
same,"TAT penetration with GSM combination, effect of washing method",Caski cells [1]; PBS washing vs 0.025% trypsin washing (Supplementary Figure S3),no difference between PBS washing and 0.025% trypsin washing method
same,TAT-FITC uptake with glucose and manntiol combination,"Caski cells [1]; co-incubated with glucose and manntiol (100 to 300 mM) 1 h, then TAT-FITC 1 h at 37°C, fluorescence quantitation (Figure 3B)",improved
same,TAT-FITC uptake with glucose and sucrose combination,"Caski cells [1]; co-incubated with glucose and sucrose (100 to 300 mM) 1 h, then TAT-FITC 1 h at 37°C, fluorescence quantitation (Figure 3A)",improved
same,TAT-FITC uptake with GSM combination,"Caski cells [1]; co-incubated with glucose, sucrose and manntiol (50 to 300 mM) 1 h, then TAT-FITC 1 h at 37°C, fluorescence quantitation (Figure 3D)",increasing as the concentration gradient
same,TAT-FITC uptake with sucrose and manntiol combination,"Caski cells [1]; co-incubated with sucrose and manntiol (100 to 300 mM) 1 h, then TAT-FITC 1 h at 37°C, fluorescence quantitation (Figure 3C)",improved
same,"TAT penetration enhancement, dose ranging","Caski cells [1]; glucose, sucrose, manntiol from 200 to 600 mM, lysate fluorescence 494/518 nm per mg protein (Figure 2B)","dependent on the concentration of glucose, sucrose and manntiol"
same,TAT-FITC penetration efficiency in the presence of glycerol and glycine,Caski cells [1]; [4],not observed
same,intracellular delivery efficiency of TAT-FITC with NH4Cl,"Caski cells [1]; lysosomotrophic neutralizing agent NH4Cl, in the presence of GSM combination (Figure 7D)",significantly decreased
same,intracellular delivery efficiency of TAT-FITC with NaN3,"Caski cells [1]; metabolic inhibitor NaN3, in the presence of GSM combination (Figure 7C)",significantly decreased
same,TAT penetration efficiency with serum,"Caski cells [1]; with vs without 10% fetal bovine serum (FBS), GSM combination (Figure 7A)",remains decreased
same,TAT penetration efficiency with galactose treatment,Caski cells [3],partially enhance the penetration efficiency
same,enhancement of TAT-FITC penetration by chloroquine,Caski cells [3],limited
same,TAT uptake with glucose and manntiol in different cell lines,A549 and Siha cells,enhance the penetration of TAT uptake
